Measurements: US8470814B2, “Diazepinedione derivative” (Nippon Chemiphar Co., Ltd., priority 2009, dated 2013)
Counter-ions that a name gives are not always drawn.

These compounds were tested against T1, human P2X4 receptors (Homo sapiens, UniProt Q99571) (assay: calcium influx assay (Fura-2, ATP-induced Ca2+ response) for P2X4 receptor antagonism). Settings: 1321N1 cells stably expressing human P2X4 receptors; 1 μM ATP; compound treated 15 min before ATP; fluorescence ratio F340/F380.
T1 construct: expressed in transfected cells
T1 sequence (Q99571 1-388): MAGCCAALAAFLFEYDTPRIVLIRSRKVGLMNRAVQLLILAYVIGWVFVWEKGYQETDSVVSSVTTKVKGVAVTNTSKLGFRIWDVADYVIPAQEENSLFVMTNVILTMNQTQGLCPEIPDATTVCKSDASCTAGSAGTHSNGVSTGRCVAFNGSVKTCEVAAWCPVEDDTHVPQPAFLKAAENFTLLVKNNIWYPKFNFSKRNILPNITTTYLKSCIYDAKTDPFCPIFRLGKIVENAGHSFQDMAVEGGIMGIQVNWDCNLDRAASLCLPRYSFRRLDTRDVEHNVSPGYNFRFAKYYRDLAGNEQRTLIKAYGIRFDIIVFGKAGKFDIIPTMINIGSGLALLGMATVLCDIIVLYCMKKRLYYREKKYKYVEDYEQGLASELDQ
Type: cell-based
Procedure: (§1) 1321N1 cells stably expressing human P2X4 receptors were adopted for calcium influx assay. P2X4/1321N1 cells were plated in 96-well assay plate and cultured 24 hours in an atmosphere of 5% CO2 at 37° C. Fura-2 AM calcium indicator dissolved in an extracellular solution for calcium imaging was loaded onto cells for 45 minutes at room temperature. […] The cells were alternatively illuminated with two excitations wavelengths (340 nm and 380 nm) via xenon lamp and the emitted fluorescence was measured at 510 nm. The fluorescence changes after the treatment of 1 μM ATP were monitored and determined the fluorescence ratio (F340/F380) as the index of intracellular calcium change. Tested compounds were treated to cells 15 min before the addition of ATP and the inhibition activities of compounds were calculated by comparing the Ca^2+ response with control in the absence of tested compound.
P2X4 receptor antagonism of the compound of the present invention was measured as described below.
as §1, with “change.” for “change. Tested compounds were treated to cells 15 min before the addition of ATP and the inhibition activities of compounds were calculated by comparing the Ca^2+ response with control in the absence of tested compound.”

| SMILES | IC50 |
| --- | --- |
| O=C1CC(=O)N(c2ccc(-c3nnn[nH]3)cc2)c2ccc3ccccc3c2N1 [Example 4, 5-[4-(1H-Tetrazol-5-yl)phenyl]-1H-naphtho[1,2-b][1,4]diazepin-2,4(3H,5H)-dione sodium salt] | 0.75 µM |
| O=C1CC(=O)N(c2cccc(-c3ncco3)c2)c2ccc3ccccc3c2N1 [Example 15, 5-[3-(Oxazol-2-yl)phenyl]-1H-naphtho[1,2-b][1,4]diazepin-2,4(3H,5H)-dione] | 4.2 µM |
| O=C1CC(=O)N(c2cccc(-c3cn[nH]c3)c2)c2ccc3ccccc3c2N1 [Example 16, 5-[3-(1H-Pyrazol-4-yl)phenyl]-1H-naphtho[1,2-b][1,4]diazepin-2,4(3H,5H)-dione] | 3.6 µM |
